The values below are quoted from earlier work in patent US20100284993A1, “Enhancing the Efficacy of Anti-Infective Therapeutics” (priority 2007, published 2010).

Each structure is given as a SMILES string.

For data set [1] the following is noted: in vivo.
On the set-up of data set [2]: unit not given here. The following applies: in vivo.
In data set [3] the target is peptidyl prolyl isomerases of the protozoan parasite Trypanosoma cruzi (Trypanosoma cruzi, UniProt Q09734).
Sequence of peptidyl prolyl isomerases of the protozoan parasite Trypanosoma cruzi (Q09734 30-196): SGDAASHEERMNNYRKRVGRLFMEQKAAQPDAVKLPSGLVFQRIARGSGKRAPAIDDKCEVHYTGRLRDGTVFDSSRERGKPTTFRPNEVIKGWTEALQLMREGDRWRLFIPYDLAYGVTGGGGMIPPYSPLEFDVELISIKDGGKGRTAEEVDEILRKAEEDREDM

`C=CC[C@@H]1/C=C(\C)C[C@H](C)C[C@H](OC)[C@H]2O[C@@](O)(C(=O)C(=O)N3CCCC[C@H]3C(=O)O[C@H](/C(C)=C/[C@@H]3CC[C@@H](O)[C@H](OC)C3)[C@H](C)[C@@H](O)CC1=O)[C@H](C)C[C@@H]2OC` [FK506]: in data set [1], the “distribution into protected cellular compartments in the blood” value is given as 72-98%.

For the compound `C[C@@H](O)[C@H]1C(=O)N2C(C(=O)O)=C(S[C@@H]3CN[C@H](C(=O)N(C)C)C3)[C@H](C)[C@H]12` [meropenem], in data set [2], the elimination half life result is reported as “one”.

With `C[C@@H](O)[C@H]1C(=O)N2C(C(=O)O)=C(S[C@@H]3CN[C@H](C(=O)Nc4cccc(C(=O)O)c4)C3)[C@H](C)[C@H]12` [ertapenem], the half life result in data set [2] was “four”. In addition, the “effectiveness against Pseudomonas aeruginosa” value in the data set on Pseudomonas aeruginosa is reported as “not effective”.

Turning to `CC[C@@H]1/C=C(\C)[C@@H](O)[C@H](C)C[C@H](OC)[C@H]2O[C@@](O)(C(=O)C(=O)N3CCCC[C@H]3C(=O)O[C@H](/C(C)=C/[C@@H]3CC[C@@H](O)[C@H](OC)C3)[C@H](C)[C@@H](O)CC1=O)[C@H](C)C[C@@H]2OC` [L-685,818], the “binding preference for T. cruzi peptidyl prolyl isomerases over human FKBP” value in data set [3] was “preferentially binds”.
